Values after ≈ are worked out from the molar mass of the structure shown.
Assays:
Format in all cases: cell-based
[1] = system: K562 (human erythroleukemia); experiment: MTT cytotoxicity assay on K562 cells; details: 48 hours, read-out: 50% inhibitory concentration
Procedure: (§1) The human cell lines used were K562 (human erythroleukemia) MCF7 (human breast cancer) and A375 (human melanoma). The murine cell lines used were Mel Rel (murine melanoma) and 4T1 (murine mammary cancer). […] The cell line 4T1 was also maintained with 1 mM of sodium pyruvate (Eurobio, Toulouse, FR). For the assays on normal cells, human mononucleocytes from the venous peripheral blood of healthy donors (PBMC) were obtained, and were separated by centrifugation using a Ficoll-Hypaque density gradient (GE Healthcare Bio-Sciences AB, Bjorkgatan, Uppsala, Sweden). The cytotoxic effect of the combination of the invention on tumor cells and normal cells was evaluated by direct microscopic observation and via assays with MTT (Sigma, Saint Louis Mo., USA). […] The formazan crystals were dissolved with dimethyl sulfoxide (DMSO) and the optical density was measured at 540 nm in a Multiskan MCC/340 machine (Labsystems, Thermo Fisher Scientific, Waltham, USA). The cytotoxic effect of FA-CS was evaluated with MTT on various tumoral cell lines. The […] value on the various cell lines was calculated using the Minitab software. […]

[2] = system: Fibroblasts; experiment: MTT cytotoxicity assay on fibroblasts; details: Fibroblast, read-out: 50% inhibitory concentration
[3] = system: A375 (human melanoma); experiment: MTT cytotoxicity assay on A375 cells; details: A-375, 48 hours, read-out: 50% inhibitory concentration
Procedure: The human cell lines used were K562 (human erythroleukemia) MCF7 (human breast cancer) and A375 (human melanoma). The murine cell lines used were Mel Rel (murine melanoma) and 4T1 (murine mammary cancer). These cells were maintained in RPMI 1640 medium supplemented with 10% fetal calf serum, 2 mM of L-glutamine, 100 U of penicillin, 100 μg/ml of streptomycin and 0.01 M of HEPES (Eurobio, Toulouse, FR) at 37° C. with 5% CO2 under a humid atmosphere. The cell line 4T1 was also maintained with 1 mM of sodium pyruvate (Eurobio, Toulouse, FR). For the assays on normal cells, human mononucleocytes from the venous peripheral blood of healthy donors (PBMC) were obtained, and were separated by centrifugation using a Ficoll-Hypaque density gradient (GE Healthcare Bio-Sciences AB, Bjorkgatan, Uppsala, Sweden).
The cytotoxic effect of the combination of the invention on tumor cells and normal cells was evaluated by direct microscopic observation and via assays with MTT (Sigma, Saint Louis Mo., USA). […] The formazan crystals were dissolved with dimethyl sulfoxide (DMSO) and the optical density was measured at 540 nm in a Multiskan MCC/340 machine (Labsystems, Thermo Fisher Scientific, Waltham, USA).
The cytotoxic effect of FA-CS was evaluated with MTT on various tumoral cell lines. The […] value on the various cell lines was calculated using the Minitab software. […]

[4] = system: 4T1 (murine mammary cancer); experiment: MTT cytotoxicity assay on 4T1 cells; details: Mus musculus, 48 hours, read-out: 50% inhibitory concentration
Procedure: as §1

[5] = system: MCF7 (human breast cancer); experiment: MTT cytotoxicity assay on MCF7 cells; details: 48 hours, read-out: 50% inhibitory concentration
Procedure: as §1

Row | SMILES | IC50 [1] | IC50 [2] | IC50 [3] | IC50 [4] | IC50 [5]
1 | COc1cccc2c1C(=O)c1c(O)c3c(c(O)c1C2=O)C[C@@](O)(C(=O)CO)C[C@@H]3O[C@H]1C[C@H](N)[C@H](O)[C@H](C)O1 [Doxorubicin] | 0.2 ± 0.1 µg/mL | 0.4 ± 0.1 µg/mL (≈ 0.736 µM) | 0.02 ± 0.1 µg/mL | 0.5 ± 0.1 µg/mL | 
2 | O=C(O)c1cc(O)c(O)c(O)c1 [Gallic acid] | 18.2 ± 0.1 µg/mL |  |  | 96.2 µg/mL | 4.07 ± 0.04 µg/mL

From patent US9931355B2, “Combination of compounds derived from gallic acid for the treatment of cancer” (PONTIFICLA UNIVERSIDAD JAVERIANA, priority 2012, dated 2018)
